Source: patent US20130156845A1, “LIPID FORMULATED SINGLE STRANDED RNA” (ALNYLAM PHARMACEUTICALS, INC., priority 2010, published 2013)
e = 2'-O-(2-methoxyethyl) (MOE); {P} = phosphate; f = 2'-fluoro

Legend:
[1] = Modified ssRNA 5′-phosphate serum stability assay (Example 60); assay type: in vitro ADME; conditions: full length ssRNA with 5′-terminal phosphate; 10 μM in 95% fresh mouse serum, 37° C., LC/MS
Text: A serum stability assay is useful for evaluating the stability of oligomeric compounds in the presences of nucleases and other enzymes found in serum. For example, the stability of a 5′-terminal phosphate group of an oligomeric compound can be evaluated by assessing the ability of the 5′-terminal phosphate group to remain attached to the oligomeric compound in the presence of serum. Accordingly, a serum stability assay was employed to evaluate the stability of modified ssRNAs having a 5′-terminal phosphate group.
Various modified ssRNAs, shown below, having a 5′-terminal phosphate group (10 μM) were dissolved in 95% of fresh mouse serum and incubated at 37° C. Aliquots of serum (100 μL) were removed after 0, 1, 3, 6 or 24 hours of incubation times. The serum samples were immediately quenched and snap frozen. The samples were extracted by the strong anion exchange (SAX) and octadecylsilyl (C-18) columns. For each incubation time, the amount of full length modified ssRNA having a 5′-terminal phosphate group was determined by LC/MS, and the half-life of the full length modified ssRNA having a 5′ terminal phosphate group was calculated. The results are expressed as half-time (T1/2) in the table below.

[2] = ssRNA stability in hepatocyte cell homogenate assay (Example 65); assay type: in vitro ADME; conditions: mouse hepatocyte homogenate, LC-MS; Test 1
Experimental: Hepatocytes were harvested from bal/c mice in ice-cold hepatocyte wash media (William E Media) with fetal bovine serum, sedimented by centrifugation at 1000 g for 8 minutes and then washed with hepatocyte wash media. Hepatocytes were homogenized with RIPA buffer (50 mM Tris pH 7.5, 10 mM MgCl2, 150 mM NaCl, 0.5% NP-40 alternative, one tablet of Roche protease inhibitor #11836170001), and centrifuged at 14000 g for 15 minutes at 4° C. and the supernatant was removed and stored in ice. Protein concentration (BSA mg/mL) was determined with Bradford assay and adjusted to a final protein concentration of 2 mg/mL by addition of Ripa buffer volume or cell homogenate volume.
[…] were homogenized in a homogenation buffer (20 mM Tris, pH 8, 20 mM EDTA and 0.1 M NaCl in 0.5% NP-40) at time points 0, 5, 10, 20, 30, 40 and 60 minutes (Exception: 06/408877 at time points 0, 15, 30, 60, 120 and 240 mins, 06/409044, at time points 0, 0.5, 1, 2, 4, 8, and 18 hours). An internal standard (18/355868, a 27-mer, 2′-O-methoxyethyl-modified phosphorothioate oligonucleotide, or 19/116847, a 5-10-5 gappmer, 2′-O-methoxyethyl-modified phosphorothioate oligonucleotide) with concentration at 20 ug/g was added prior to extraction. Tissue samples were extracted with 70 μL of NH4OH and 240 μL of phenol/chloroform/isoamyl alcohol (25:24:1). The supernatant was removed after centrifugation at 14000 rpm for 2 min. The remaining extractant was vortexed with an additional […] of water and the aqueous layer was removed and combined with the supernatant after centrifugation at 14000 rpm for 2 minutes.
Triethylammonium acetate solution at 1M ([…]) was added to the supernatant. The aqueous layer of the mixture was loaded onto the pre-conditioned Biotage™ Phenyl Solid Phase Extraction Plate (SPE plate) after centrifugation at 9000 rpm for 20 minutes. The SPE plate was washed several times with water. The sample was then eluted with 1.5 mL of 1% TEA in 90% MeOH and filtered through the Protein Precipitation Plate (Phenomenex™). The elutent was evaporated to dryness and diluted to 200 μL with 50% quenching buffer (8 M urea, 50 mM EDTA) and water before sample injection.
An Agilent 1100 Series LC/MSD system was connected in-line to a mass spectrometry. Mass spectrometer was operated in the electrospray negative ionization mode. The nebulizer nitrogen gas was set at […] and the drying nitrogen gas was set at 12 L/min. The drying temperature was 325° C. Samples (25 μL/well) were introduced via an auto sampler and reversed-phase chromatography was carried out with an XBridge OST C18 2.5 μm 2.1 mm×50 mm HPLC column using a flow rate of 300 μL/min at 55° C. The ion pair buffers consisted of A: 5 mM tributylammonium acetate (TBAA) in 20% acetonitrile and B: […] TBAA in 90% acetonitrile and the loading buffer was 25 mM TBAA in 25% Acetonitrile. Separation was performed on a 30% to 70% B in 9 min and then 80% B in 11 min gradient.
Quantitative analysis of oligonucleotide and internal standard by extracted ion chromatograms of the most abundant ions was performed using MSD ChemStation software. The results are expressed as half-time (T1/2) in the table below.

## P-UfUfGfUfCfUfCfUfGfGfUfCfCfUfUfAfCfUfUfAeAe (antisense UUGUCUCUGGUCCUUACUUAA; sugars from the 5' end f19 e2, 5' {P}, backbone not given here) [ISIS 404320, modified ssRNA targeting PTEN]
[1]
  T1/2: 4 h
[2]
  T1/2 Test 1: 4 min
